Read-outs that look alike come from different tables or passages of the source.
Legend:
[1] = test system: microtubules (tubulin polymer); test: Radiolabeled ligand binding assays; settings: test agent 4 μM; radiolabel 4.0 μM; 37° C.
Description: The abilities of test agents to inhibit the binding of radiolabeled forms of the microtubule stabilizers paclitaxel, discodermolide and epothilone B from tubulin polymer were determined.
[^3H]Paclitaxel, [^3H]discodermolide and [^14C]epothilone B solutions were prepared as 125 μM stock solutions in 50% DMSO. Radiolabeled compound (final concentration, 4.0 μM) and test agents at final concentrations noted in the text and tables were mixed in 50 μL of 4:1 (v/v) 0.75 M aqueous MSG/DMSO and warmed to 37° C. Meanwhile, a reaction mixture containing 0.75 M MSG, 2.5 μM tubulin, and 25 μM ddGTP was prepared and incubated at 37° C. for 30 min to form microtubuless. A 200 μL aliquot of the microtubule mixture was added to the drug mixtures, and incubation continued for 30 min at 37° C. Reaction mixtures were centrifuged in an Eppendorf 5417C centrifuge at 14,000 rpm for 20 min at room temperature. Radiolabel in the supernatants (100 μL) was determined by scintillation spectrometry.

Bovine brain tubulin = test system: T1, Bovine brain tubulin; test: Pelleting assay (tubulin assembly EC50 determination); format: biochemical; settings: tubulin 10 μM in 0.2 M MSG, 15 min at 20° C.; for EC50: concentration required to polymerize 50% of tubulin, read-out: EC50 (μM) ± SD (N)
T1 construct: Bovine brain tubulin (10 μM) in 0.2 M MSG, 15 min at 20° C
Description: Dictyostatin and representative analogs were evaluated in a quantitative assay for their ability to promote tubulin polymerization. […] When the percent polymer formed was determined in the reactions, a comparison of the activities of all the analogs could be made.
The assay was performed under three different reaction conditions following the procedure reported earlier (Gapud et al., 2004). Reaction condition 1 included 0.2 M monosodium glutamate (MSG), 10 μM tubulin, 5% DMSO and varying concentrations of test agents. Reaction condition 2 included 0.8 M MSG, 400 μM GTP, 10 μM tubulin, 5% DMSO, and varying concentrations of test agents. Reaction condition 3 had 0.6 M MSG, 200 μM GTP, and 10 μM tubulin, and 5% DMSO, and varying concentrations of the test agents. The experimental protocol for all the three reaction conditions was the following. The reaction mixtures were incubated at room temperature (20-22° C.) for 15 min and spun for 10 min at 14,000 rpm in an Eppendorf microtube centrifuge. Aliquots of the supernatants were removed and assayed for protein content by the method of Lowry.

[2] = test system: human ovarian carcinoma cells (1A9); test: Antiproliferative assay (GI50, MTS); format: cell-based; settings: for antiproliferative potency / GI50 values (in words): Table 1 (1A9 and mutant lines)
Description: (§1) Representative analogs were examined for their antiproliferative activities against human ovarian carcinoma 1A9 cells and their paclitaxel-resistant mutants, 1A9/Ptx10 and 1A9/Ptx22.
[…] Cells were maintained in RPMI medium with 10% FBS in it, plated in tissue culture plates, and allowed to grow for 48-72 h before transferring them into 96-well plates. Cells were allowed to attach and grow for 48 h in 96-well plates after which they were treated with either control (DMSO) or drug in triplicate/quadruplicate. Cells were incubated with the compounds for 72 h. Cells were treated with MTS reagent before reading the plate in a Dynamax plate reader for determining the cell number. The fifty percent growth inhibition values (GI50 values) were calculated for the compounds against all the three cell lines.

[3] = test system: 1A9/Ptx22 (Ala364 −> Thr) β-tubulin mutant cells; test: Antiproliferative assay (GI50, MTS), paclitaxel-resistant clone; format: cell-based, human; settings: for fold-resistance: 1A9/Ptx22 versus parental 1A9
Description: as §1
(§2) The effects of dictyostatin and its analogs on growth inhibition of parental ([…]) and paclitaxel-resistant (1A9/Ptx10 and Ptx22) ovarian adenocarcinoma cell lines were evaluated following the antiproliferative assay protocol as described earlier (Minguez et al., 2003; Choy et al., 2003; Lazo et al., 2001). Cells were maintained in RPMI medium with 10% FBS in it, plated in tissue culture plates, and allowed to grow for 48-72 h before transferring them into 96-well plates. Cells were allowed to attach and grow for 48 h in 96-well plates after which they were treated with either control (DMSO) or drug in triplicate/quadruplicate. Cells were incubated with the compounds for 72 h. Cells were treated with MTS reagent before reading the plate in a Dynamax plate reader for determining the cell number. The fifty percent growth inhibition values (GI50 values) were calculated for the compounds against all the three cell lines.

[4] = test system: 1A9/Ptx10 (Phe270 −> Val) β-tubulin mutant cells; test: as above; format: cell-based, human; settings: for fold-resistance: 1A9/Ptx10 versus parental 1A9
Description: as §1, §2

HeLa cells = test: Multiparameter fluorescence high information content analysis of cellular effects; format: cell-based; parameters: unit not given here; settings: 24 h treatment; for Minimum detectable cellular change, Nuclear condensation: Hoechst 33342
Description: HeLa cells were plated on collagen-coated 384-well microtiter plates, allowed to attach, then treated for 24 h with test agents. Test agent concentrations began at 1 μM, and two-fold dilutions were made to levels below 1 nM. After the treatment period, the cells were fixed with formalin and their chromatin stained with Hoechst 33342. Cells were permeabilized and treated with primary antibodies for α-tubulin and phosphohistone H3, and then with fluorophore-labeled secondary antibodies. The three fluorescent channels were then examined on an ArrayScan II, which gives quantitative pixel distribution and density information in each channel on a per cell basis.
HeLa cells growing at log phase were trypsinized and plated in 40 μL at a density of 7,000-8,000 cells per well in calf skin collagen I-coated 384-well plates (Falcon #3962; Fisher Scientific). Cells were exposed to test agents or 0.5% DMSO within 2-8 h of plating. Concentrated DMSO stock solutions of all test agents were diluted into solutions of HBSS medium plus 10% FBS and added to the microplate wells (10 μL per well), using an automated liquid handling system (Biomek® 2000; Beckman-Coulter, Inc.) to provide a serial 2-fold dilution of each test agent. The cells were incubated in the presence of test agents for 24 h. At the end of the incubation, the medium was removed and replaced with HBSS containing 4% formaldehyde and 10 μg/mL Hoechst 33342 (25 μL/well) to fix the cells and fluorescently label their chromatin. After incubation at room temperature for 20-30 min, the solution was removed from each well and replaced with HBSS (100 μL/well). Further reagent additions were made to the microplates using the Biomek 2000. After removing the HBSS from each well, cells were permeabilized for 5 min at room temperature with 0.5% (w/w) Triton X-100 in HBSS (10 μL/well). This step extracts a fraction of the soluble cellular components, including soluble tubulin. The wells were washed with HBSS (100 μL/well), followed by addition of a primary antibody solution containing mouse anti-α-tubulin (1:3000) and rabbit anti-phosphohistone H3 (1:500) in HBSS (10 μL/well). After 1 h at room temperature, the wells were washed with HBSS as above, followed by the addition of a secondary antibody solution containing fluorescein-5-isothiocyanate (FITC)-labeled donkey anti-mouse (1:300) and Cy3-labeled donkey anti-rabbit (1:300) antibodies diluted in HBSS (10 μL/well). After 1 h at room temperature, the wells were washed as above, and HBSS was added (100 μL/well). The plates were placed in an ArrayScan® HCS Reader with the Target Activation BioApplication Software coupled to Cellomics® Store and the vHCS™ Discovery Toolbox (Cellomics, Inc.) to analyze images. Briefly, the instrument was used to scan multiple optical fields, each with multiparameter fluorescence, within a subset of the wells of the 384-well microplate. The BioApplication software produced multiple numerical feature values, such as subcellular object intensities, shapes, and location for each cell within an optical field. […] A nuclear mask was generated from Hoechst 33342-stained nuclei, and object identification thresholds and shape parameters were set such that the algorithm identified over 90% of the nuclei in each field. Objects that touched each other or the edge of the image were excluded from the analysis. Tubulin mass was defined as the average green (FITC) pixel intensity in an area defined by the Hoechst-defined nuclear mask. This cytoplasmic area around the nucleus contains cytoskeletal components is a region from which sensitive measurements of cytoplasmic characteristics can be made.

[5] = read-out: GI50 ± S.D., 1A9 parental cells, 72 h incubation
[6] = read-out: GI50 ± S.D., 1A9/Ptx22 (Ala364 −> Thr), 72 h incubation
[7] = read-out: GI50 ± S.D., 1A9/Ptx10 (Phe270 −> Val), 72 h incubation
[8] = Homo sapiens, Ovarian carcinoma cell, 72 h, read-out: GI50 ± S.D., 1A9 parental cells, 72 h incubation
[9] = Homo sapiens, 1A9/ptx-22, 72 h, read-out: GI50 ± S.D., 1A9/Ptx22 (Ala364 −> Thr), 72 h incubation
[10] = Homo sapiens, 1A9/ptx-10, 72 h, read-out: GI50 ± S.D., 1A9/Ptx10 (Phe270 −> Val), 72 h incubation

Row | Compound | Percent inhibition of radiolabel from microtubules, [3H]Paclitaxel [1] | % Tubulin polymerized by 50 μM test agent (Bovine brain tubulin) [%] | EC50 (Bovine brain tubulin) [µM] | antiproliferative potency / GI50 values (in words) [2] | GI50 [2, 5] [µM] | fold-resistance [3] [fold] | GI50 [3, 6] [µM] | fold-resistance [4] [fold] | GI50 [4, 7] [µM] | Minimum detectable cellular change, Phosphohistone H3 (HeLa cells) | Minimum detectable cellular change, Tubulin polymer intensity (HeLa cells) | Minimum detectable cellular change, Nuclear condensation (HeLa cells) | GI50 [2, 8] [µM] | GI50 [3, 9] [µM] | GI50 [4, 10] [µM] | Percent inhibition of radiolabel from microtubules, [3H]Discodermolide [1] | Percent inhibition of radiolabel from microtubules, [14C]Epothilone B [1]
1 | C=CC=CC(C)C1OC(=O)C=CC=CC(C)C(O)CC(O)C=CC(C)C(O)C(C)CC(C)CCC(O)C1C [Compound 100, 8(S),10(S),14(R),20(R)-Tetrahydroxy-7(S),13(S),15(R),17(S),21 (S)-pentamethyl-22(S)-(1(S)-methyl-penta-2,4-dienyl)-oxa-cyclodocosa-3(E),5(E),11(Z)-trien-2-one] | 0 ± 1% | 1 ± 1 | > 50 | high nanomolar GI50 values | 0.31 ± 0.04 | 2.5 | 0.79 ± 0.56 | 2.5 | 0.78 ± 0.2 | >5000 (4) | >5000 (4) | >5000 (4) |  |  |  |  | 
2 | C=C/C=C\[C@H](C)[C@H](O)[C@@H](C)[C@H](CC[C@H](C)C[C@@H](C)[C@@H](O[Si](C)(C)C(C)(C)C)[C@@H](C)/C=C\[C@H](C[C@H](O[Si](C)(C)C(C)(C)C)[C@@H](C)/C=C/C=C\C(=O)O)O[Si](C)(C)C(C)(C)C)O[Si](C)(C)C(C)(C)C [Compound 107, (2Z,4E,6S,7S,9S,10Z,12S,13R,14R,16S,19S,20R,21S,22S,23Z)-7,9,13,19-tetrakis(tert-Butyldimethylsilyloxy)-21-hydroxy-6,12,14,16,20,22-hexamethylhexacosa-2,4,10,23,25-pentaenoic acid] |  |  |  |  |  |  |  |  |  |  |  |  | > 0.5 | > 0.5 | > 0.5 |  | 
3 | C=CC=CC(C)C1OC(=O)C=CC=CC(C)C(O)CC(O)C=CC(C)C(O)C(C)CC(C)CCC(O)C1C [Compound 108, 8(S),10(S),14(R),20(S)-Tetrahydroxy-7(S),13(S),15(R),17(S),21(S)-pentamethyl-22(S)-(1(S)-methyl-penta-2,4-dienyl)oxacyclodocosa-3(Z),5(E),11(Z)-trien-2-one] | 0 ± 1% | 5 ± 1 | > 50 | mid micromolar GI50 values |  | 1.1 |  | 0.9 |  | >5000 (4) | >5000 (4) | >5000 (4) | 28 ± 1 | 30 ± 1 | 26 |  | 
4 | C=CC=CC(C)C1OC(=O)C=CC=CC(C)C(O)CC(O)C=CC(C)C(O)C(C)CC(C)CCC(O)C1C [Compound 109, 8(S),10(S),14(R),20(S)-Tetrahydroxy-7(S),13(S),15(R),17(S),21(S)-pentamethyl-22(S)-(1(S)-methyl-penta-2,4-dienyl)oxacyclodocosa-3(E),5(E),11(Z)-trien-2-one] | 0 ± 1% | 5 ± 4 | > 50 | mid micromolar GI50 values | 25 ± 2 | 1.2 | 30 ± 1 | 1 | 25 ± 1 | >5000 (4) | >5000 (4) | >5000 (4) |  |  |  |  | 
5 | CC(=O)O[C@@]12CO[C@@H]1C[C@H](O)[C@@]1(C)C(=O)[C@H](O)C3=C(C)[C@@H](OC(=O)[C@H](O)[C@@H](NC(=O)OC(C)(C)C)c4ccccc4)C[C@@](O)([C@@H](OC(=O)c4ccccc4)[C@H]21)C3(C)C [docetaxel] | 63 ± 8 (4) % |  |  |  |  |  |  |  |  |  |  |  |  |  |  | 8 ± 6 (3) % | 36 ± 1 (3) %
6 | C/C(=C\c1csc(C)n1)[C@@H]1C[C@@H]2O[C@@H]2CCC[C@H](C)[C@H](O)[C@@H](C)C(=O)C(C)(C)[C@@H](O)CC(=O)O1 [epothilone A] | 53 ± 4 (4) % |  |  |  |  |  |  |  |  |  |  |  |  |  |  | 6 ± 6 (3) % | 25 ± 3 (3) %
7 | C/C(=C\c1csc(C)n1)[C@@H]1C[C@@H]2O[C@]2(C)CCC[C@H](C)[C@H](O)[C@@H](C)C(=O)C(C)(C)[C@@H](O)CC(=O)O1 [epothilone B] |  |  |  |  |  |  |  |  |  |  |  |  |  |  |  | 14 ± 3% | 

Source: patent publication US7321046B2, “Analogs of dictyostatin, intermediates therefor and methods of synthesis thereof” (University of Pittsburgh, priority 2002, dated 2008)
